Assay [1] relates to HT-29. The experiment in a line: Antiproliferative activity against human HT-29 cells assessed as growth inhibition at 0.2 uM measured after 72 hrs by MTT assay. It is filed as functional. The settings on record: read-out: GI.
The subject of assay [2] is Pfeiffer. The experiment in a line: Antiproliferative activity against human Pfeiffer cells assessed as growth inhibition at 0.2 uM measured after 72 hrs by MTT assay. Conditions: read-out: GI. It is filed as functional.
Assay [3] is described as follows: Selectivity ratio of IC50 for inhibition of 20S proteasome beta 5c subunit (unknown origin) to IC50 for inhibition of 20S proteasome subunit beta-5i.
The test system of assay [4] is DOHH-2. Description: Antiproliferative activity against human DOHH-2 cells assessed as growth inhibition at 0.2 uM measured after 72 hrs by MTT assay. It is filed as functional. The settings on record: read-out: GI.
Assay [5] relates to HCT-116. The experiment in a line: Antiproliferative activity against human HCT-116 cells assessed as growth inhibition at 0.2 uM measured after 72 hrs by MTT assay. Conditions: read-out: GI. Type of assay: functional.
The subject of assay [6] is MCF7. The experiment in a line: Antiproliferative activity against human MCF7 cells assessed as growth inhibition at 0.2 uM measured after 72 hrs by MTT assay. Type of assay: functional. Conditions: read-out: GI.
Assay [7] addresses T1, Proteasome Macropain subunit MB1 (Homo sapiens, UniProt P28074).
T1 sequence (P28074 whole entry): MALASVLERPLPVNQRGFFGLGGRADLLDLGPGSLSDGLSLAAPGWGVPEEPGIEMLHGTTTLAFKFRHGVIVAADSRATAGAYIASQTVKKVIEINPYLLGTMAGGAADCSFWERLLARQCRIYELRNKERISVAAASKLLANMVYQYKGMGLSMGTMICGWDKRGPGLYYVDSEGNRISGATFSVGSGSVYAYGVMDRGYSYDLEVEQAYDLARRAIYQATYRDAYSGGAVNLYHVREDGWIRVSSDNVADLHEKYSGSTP
The experiment in a line: Inhibition of 20S proteasome subunit beta-5c (unknown origin) using Ac-WLA-AMC as substrate and measured after 30 mins.

The target of assay [8] is T2, Proteasome subunit beta type-8 (Homo sapiens, UniProt P28062).
T2 sequence (P28062 whole entry): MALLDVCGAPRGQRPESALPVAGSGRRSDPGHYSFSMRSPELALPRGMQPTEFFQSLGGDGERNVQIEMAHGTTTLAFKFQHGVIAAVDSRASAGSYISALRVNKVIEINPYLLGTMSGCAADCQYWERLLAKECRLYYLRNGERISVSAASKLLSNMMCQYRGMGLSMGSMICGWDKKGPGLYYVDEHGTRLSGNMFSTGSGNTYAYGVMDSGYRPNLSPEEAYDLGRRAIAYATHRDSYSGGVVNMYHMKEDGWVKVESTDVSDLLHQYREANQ
The experiment in a line: Inhibition of 20S proteasome subunit beta-5i (unknown origin) using Ac-ANW-AMC as substrate and measured after 30 mins.

Non-standard residues stand in square brackets, D forms with d. Residues, ends and D or L forms follow the SMILES beside them. *: point of attachment. 4Amb = NCc1ccc(C(=O)O)cc1; NHtBu = CC(C)(C)N*; ClAc = O=C(CCl)*; βAla = NCCC(=O)O

Consider `CC(C)(C)NC(=O)CC[C@H](NC(=O)CCNC(=O)CCl)C(=O)N[C@@H](Cc1ccccc1)C(=O)NCc1ccc2ccccc2c1`, for which the inhibition of growth at 0.2 µM in assay [1] is less than 20%; in assay [2], 25%; in assay [4], less than 20%; in assay [5], 39%; in assay [6], less than 20%. For the same molecule, the Ratio IC50 in assay [3] was found to be 15.
With `CC(C)(C)NC(=O)CC[C@H](NC(=O)CCNC(=O)CCl)C(=O)N[C@@H](Cc1ccccc1)C(=O)NCc1ccc(OC(F)(F)F)cc1`, in assay [3], the Ratio IC50 is more than 14. Besides, in assay [7], the IC50 is more than 5 µM.
As to `CC(=O)N[C@@H](CNC(=O)CCl)C(=O)N[C@@H](CCC(=O)NC(C)(C)C)C(=O)N[C@@H](Cc1ccccc1)C(=O)NCc1ccc(C)cc1`, the Ratio IC50 in assay [3] is 3.
For `Cc1ccc(CNC(=O)[C@H](Cc2ccccc2)NC(=O)[C@H](CC(=O)NCC2CCCO2)NC(=O)[C@H](CNC(=O)CCl)NC(=O)CN2CCOCC2)cc1` (stereo partly drawn), the Ratio IC50 in assay [3] was 3. Further, the IC50 in assay [7] was 0.43 µM; in assay [8], 138 nM.
The matching figures for `Cc1ccc(CNC(=O)CNC(=O)[C@H](CCC(=O)NC(C)(C)C)NC(=O)[C@H](CNC(=O)CCl)NC(=O)CN2CCOCC2)cc1`: 41, 3.85 µM and 94.4 nM.
Regarding `CC(C)(C)NC(=O)CC[C@H](NC(=O)CCNC(=O)CC#N)C(=O)N[C@@H](Cc1ccc2ccccc2c1)C(=O)NCc1cccc2ccccc12`, in assay [3], the Ratio IC50 is 52.
Consider `Cc1ccc(CNC(=O)[C@H](Cc2ccccc2)NC(=O)[C@H](CCC(=O)NC(C)(C)C)NC(=O)CCNC(=O)/C(C#N)=C/c2ccc(Cl)cc2)cc1`, for which the inhibition of growth at 0.2 µM in assay [1] is less than 20%; in assay [2], 34%; in assay [4] it was less than 20%; in assay [5], 28%; in assay [6], 43%. Further, in assay [3], the Ratio IC50 turned out to be 22.
Regarding `Cc1[nH]c2ccc(CNC(=O)[C@H](Cc3ccccc3)NC(=O)[C@H](CCC(=O)NC(C)(C)C)NC(=O)CCNC(=O)CCl)cc2c1C`, the Ratio IC50 in assay [3] was found to be 27. This molecule also gave an IC50 in assay [8] of 36.5 nM.
In the case of `CC(C)(C)NC(=O)CC[C@H](NC(=O)CCNC(=O)CCl)C(=O)N[C@@H](Cc1ccccc1)C(=O)NCc1ccc(N2CCOCC2)cc1`, in assay [3], the Ratio IC50 stood at 5.
Same read-out and setting: with `COc1cccc(CNC(=O)[C@H](Cc2ccccc2)NC(=O)[C@H](CCC(=O)NC(C)(C)C)NC(=O)CCNC(=O)CCl)c1` the figure was 11.
As to `Cc1ccc(CNC(=O)[C@H](Cc2ccccc2)NC(=O)[C@H](CCC(=O)NC(C)(C)C)NC(=O)[C@H](CNC(=O)CCl)NC(=O)CN2CCOCC2)cc1`, the inhibition of growth at 0.2 µM in assay [1] was less than 20%; in assay [2] it was 32%; in assay [4] it was less than 20%; in assay [5] it was 29%; in assay [6], less than 20%. Further, the Ratio IC50 in assay [3] was 14.
As for `Cc1ccc(CNC(=O)[C@H](Cc2ccccc2F)NC(=O)[C@H](CCC(=O)NC(C)(C)C)NC(=O)CCNC(=O)CCl)cc1`, in assay [3], the Ratio IC50 is 4. Also, half-maximal inhibition in assay [7] (IC50) required 0.0815 µM.
Turning to `Cc1ccc(CNC(=O)[C@H](Cc2ccccc2)NC(=O)[C@H](CCC(=O)NC(C)(C)C)NC(=O)CCNC(=O)/C(C#N)=C/C(C)C)cc1`, the inhibition of growth at 0.2 µM in assay [1] was less than 20%; in assay [2] it was 27%; in assay [4], 27%; in assay [5], 30%; in assay [6], less than 20%. Moreover, the Ratio IC50 in assay [3] turned out to be 4.
As to `CC(C)(C)NC(=O)CC[C@H](NC(=O)CCNC(=O)CCl)C(=O)N[C@@H](Cc1ccccc1)C(=O)NCc1ccccc1C(F)(F)F`, the Ratio IC50 in assay [3] was more than 19. This molecule also registered an IC50 in assay [7] of more than 5 µM.
In the case of `Cc1ccc(CNC(=O)[C@H](Cc2ccccc2)NC(=O)[C@H](CCC(=O)N2CCCC2)NC(=O)[C@H](CNC(=O)CCl)NC(=O)CN2CCOCC2)cc1`, the Ratio IC50 in assay [3] is 10. Also, the IC50 in assay [7] stood at 3.57 µM.
Consider `COc1ccc(/C=C(\C#N)C(=O)NCCC(=O)N[C@@H](CCC(=O)NC(C)(C)C)C(=O)N[C@@H](Cc2ccccc2)C(=O)NCc2ccc(C)cc2)cc1`, for which the inhibition of growth at 0.2 µM in assay [1] was less than 20%; in assay [2], 28%; in assay [4] it was less than 20%; in assay [5] it was 32%; in assay [6] it was less than 20%. In addition, the Ratio IC50 in assay [3] was found to be 2.
Turning to `Cc1ccc(/C=C(\C#N)C(=O)NCCC(=O)N[C@@H](CCC(=O)NC(C)(C)C)C(=O)N[C@@H](Cc2ccccc2)C(=O)NCc2ccc(C)cc2)cc1`, the inhibition of growth at 0.2 µM was less than 20% in assay [1]; 29% in assay [2]; less than 20% in assay [4]; 41% in assay [5]; less than 20% in assay [6]. In assay [3], the Ratio IC50 came out at 9.
Consider `Cc1ccc(CNC(=O)[C@H](Cc2ccccc2)NC(=O)[C@H](CCC(=O)NC(C)(C)C)NC(=O)[C@H](CNC(=O)CCl)NC(=O)C(=O)c2c[nH]c3ccccc23)cc1`, for which the inhibition of growth at 0.2 µM is less than 20% in assay [1]; 32% in assay [2]; less than 20% in assay [4]; 44% in assay [5]; less than 20% in assay [6]. Besides, in assay [3], the Ratio IC50 is 2.
`Cc1ccc(CNC(=O)[C@H](Cc2ccccc2)NC(=O)[C@H](CCC(=O)NC(C)(C)C)NC(=O)CCNC(=O)/C(C#N)=C/c2nccs2)cc1`: the inhibition of growth at 0.2 µM in assay [1] was less than 20%; in assay [2], 22%; in assay [4], 22%; in assay [5], less than 20%; in assay [6], less than 20%. Moreover, the Ratio IC50 in assay [3] was found to be 4.
As to `Cc1ccc(CNC(=O)[C@H](Cc2ccccc2)NC(=O)[C@H](CCC(=O)NC(C)(C)C)NC(=O)CCNC(=O)CCl)cc1`, the inhibition of growth at 0.2 µM was less than 20% in assay [1]; less than 20% in assay [2]; 36% in assay [4]; 49% in assay [5]; less than 20% in assay [6]. The Ratio IC50 in assay [3] stood at 12.
For `COC(=O)c1ccc(CNC(=O)[C@H](Cc2ccccc2)NC(=O)[C@H](CCC(=O)NC(C)(C)C)NC(=O)CCNC(=O)CCl)cc1` ({ClAc-βAla}-Glu(NHtBu)-Phe-[4Amb]-OMe), the Ratio IC50 in assay [3] turned out to be 6.
In the case of `Cc1ccc(CNC(=O)[C@H](Cc2ccccc2)NC(=O)[C@H](CCC(=O)NC(C)(C)C)NC(=O)[C@H](CNC(=O)CCl)NC(=O)OC(C)(C)C)cc1`, the inhibition of growth at 0.2 µM in assay [1] is 11%; in assay [2], 29%; in assay [4], less than 20%; in assay [5], 46%; in assay [6], less than 20%. In addition, the Ratio IC50 in assay [3] is 6.
As for `CC(C)c1ccc(CNC(=O)[C@H](Cc2ccccc2)NC(=O)[C@H](CCC(=O)NC(C)(C)C)NC(=O)CCNC(=O)CCl)cc1`, the Ratio IC50 in assay [3] worked out at 12.
As to `Cc1ccc(CNC(=O)[C@H](Cc2cccc(F)c2)NC(=O)[C@H](CCC(=O)NC(C)(C)C)NC(=O)CCNC(=O)CCl)cc1`, the inhibition of growth at 0.2 µM was less than 20% in assay [1]; 29% in assay [2]; less than 20% in assay [4]; 35% in assay [5]; less than 20% in assay [6]. Further, the Ratio IC50 in assay [3] is 20. Half-maximal inhibition in assay [8] (IC50) required 6.51 nM.
`Cc1ncsc1-c1ccc(CNC(=O)[C@H](Cc2ccccc2)NC(=O)[C@H](CCC(=O)NC(C)(C)C)NC(=O)CCNC(=O)CCl)cc1`: in assay [3], the Ratio IC50 was more than 11. For the same molecule, in assay [7], the IC50 is more than 5 µM.
In the case of `CC(C)(C)NC(=O)CC[C@H](NC(=O)CCNC(=O)CCl)C(=O)N[C@@H](Cc1ccccc1)C(=O)NCc1cccc(C(F)(F)F)c1`, the Ratio IC50 in assay [3] stood at 22. Besides, it took 125 nM to reach half-maximal inhibition in assay [8] (IC50).
Take `CC(C)(C)NC(=O)CC[C@H](NC(=O)CCNC(=O)CCl)C(=O)N[C@@H](Cc1ccccc1)C(=O)NCc1ccc(S(C)(=O)=O)cc1`: the IC50 in assay [8] was more than 5000 nM.
Turning to `Cn1ncc2cc(CNC(=O)[C@H](Cc3ccccc3)NC(=O)[C@H](CCC(=O)NC(C)(C)C)NC(=O)CCNC(=O)CCl)ccc21`, the Ratio IC50 in assay [3] is 3.
Take `CC(C)(C)NC(=O)CC[C@H](NC(=O)CCNC(=O)CCl)C(=O)N[C@@H](Cc1ccccc1)C(=O)NCc1ccc(C#N)cc1C(F)(F)F`: the IC50 in assay [8] is more than 5000 nM.
As for `Cc1ccc(CNC(=O)[C@H](Cc2ccccc2)NC(=O)[C@H](CCC(=O)NC(C)(C)C)NC(=O)CCNC(=O)/C(C#N)=C/C2CC2)cc1`, the inhibition of growth at 0.2 µM was less than 20% in assay [1]; less than 20% in assay [2]; 25% in assay [4]; 26% in assay [5]; 22% in assay [6]. In addition, the Ratio IC50 in assay [3] turned out to be 7. Further, the IC50 in assay [8] turned out to be 9.64 nM.

(Values after ChEMBL document CHEMBL5154800, “Identification of N, C-capped di- and tripeptides as selective immunoproteasome inhibitors” (Eur J Med Chem, 2022).)
